US20020039597A1, “STABILIZED COMPOSITIONS CONTAINING BENZIMIDAZOLE-TYPE COMPOUNDS” (priority 1998, published 2002)
Blank lines part the entries; values can stand above or below the compound they belong to.

Key:
[1] = Compatibility test of sodium rabeprazole with additives (residual content by HPLC, visual coloring); format: physicochemical; details: 1 week, cold place sample = 100%; for residual content of sodium rabeprazole, 40° C.-75% RH: 40° C. 75% relative humidity
Description: 50 mg sodium rabeprazole and 450 mg additives shown in the table below were mixed in a mortar. The mixture was introduced into a transparent glass vial and stored in a cold place or at 60° C. or 40° C. under 75% relative humidity for 1 week and their content was determined by high performance liquid chromatography. Assuming that the content of the sample stored in the cold place is 100%, the degrees of the residual content under the respective conditions are shown in Tables 1 through 3. Further, their coloring changes were visually evaluated. The sodium rabeprazole used was amorphous in Table land crystalline in Tables 2 and 3. In Table 1, low-substituted hydroxypropyl cellulose (expressed as L-HPC) used as a disintegrating agent in addition to amorphous sodium rabeprazole was blended in the control; in Table 2, a sample further incorporating aluminum hydroxide (expressed as Al(OH) 3 in the table) i.e. an alkaline inorganic salt used as an antacid agent was used; and in Table 3, a sample incorporating polyvinyl pyrrolidone (expressed as PVP in the table) was used as a binder.

[2] = Amount of peroxide in crospovidone mixed with sodium sulfite (Japanese Pharmacopoeia test method); format: physicochemical
Description: Further, 1 g crospovidone containing 201 ppm peroxide was accurately taken, and sodium sulfite (amounts: 4 levels i.e. no addition, 0.02%, 0.05% and 0.10%) was added thereto and mixed well, and the amount of the peroxide in the mixture was determined according to a test method described in the Japanese Pharmacopoeia.

[3] = Table 1, amorphous sodium rabeprazole 50 mg + 450 mg additive
[4] = Table 2, crystalline sodium rabeprazole 50 mg + 450 mg additive
[5] = Table 3, crystalline sodium rabeprazole 50 mg + 450 mg additive

residual content of sodium rabeprazole, 40° C.-75% RH [1, 3]: 93.9%
residual content of sodium rabeprazole, 60° C. [1, 3]: 99.1%
SMILES: COCCCOc1ccnc(C[S+]([O-])c2nc3ccccc3[nH]2)c1C (stereo not drawn) [sodium rabeprazole (amorphous), sodium rabeprazole]

residual content of sodium rabeprazole, 40° C.-75% RH [1, 4]: 91.8%
residual content of sodium rabeprazole, 60° C. [1, 4]: 99.8%
residual content of sodium rabeprazole, 40° C.-75% RH [1, 5]: 86.9%
residual content of sodium rabeprazole, 60° C. [1, 5]: 97.3%
SMILES: COCCCOc1ccnc(C[S+]([O-])c2nc3ccccc3[nH]2)c1C (stereo not drawn) [sodium rabeprazole (crystalline), sodium rabeprazole]

SMILES: O=S([O-])[O-].[Na+].[Na+] [sodium sulfite]
amount of the peroxide in the composition ([2]; 0.02% sodium sulfite added to 1 g crospovidone containing 201 ppm peroxide): 184 ppm
amount of the peroxide in the composition ([2]; 0.05% sodium sulfite added to 1 g crospovidone containing 201 ppm peroxide): 108 ppm
amount of the peroxide in the composition ([2]; 0.10% sodium sulfite added to 1 g crospovidone containing 201 ppm peroxide): 0 ppm
